From US12551459B2, “Combination of kynurenine and antigen presenting cells (APC) as therapeutics and methods for their use in immune modulation” (THE UNIVERSITY OF BRITISH COLUMBIA, priority 2014, dated 2026)

Columns and labels:
[1] = tested on: C3H/HeJ mice induced to develop alopecia areata (AA); experiment: Prevention of alopecia areata in C3H/HeJ mice by fibroblast + kynurenine treatment; format: in vivo
Protocol: Prevention of alopecia areata by combination fibroblast+kynurenine treatment: C3H/HeJ mice were induce to develop alopecia areata (AA) by intradermal injection of lymph node cells from AA affected mice. These mice (5 per group) then received either no treatment, a single-dose injection of 2×10^6 unmodified primary dermal fibroblasts to peritoneal cavity, oral kynurenine (added to drinking water, 100 μg/mL), or a combination therapy consisting of a) single-dose injection of 2×10^6 unmodified primary dermal fibroblasts to peritoneal cavity and b) oral kynurenine (added to drinking water, 100 μg/mL).

[2] = parameters: species or system mice; details: NOD (non-obese diabetic), mouse, in vivo, sc
Protocol: Non-obese diabetic (NOD) mice were intraperitoneal (IP) injected with normal fibroblasts (non-IDO-expressing, 2×10^7 cells per mouse) at the onset of hyperglycemia. Following IP fibroblast injection, the mice were given daily subcutaneous DL-kynurenine injections (20 μg/mouse). The blood glucose levels were monitored twice a week. For the controls, mice were either given only the IP fibroblast injection, or only the daily subcutaneous kynurenine injections as set out above, or were give no treatment at all.
Furthermore, in mouse 1 and mouse 2 (shown in FIG. 1) the subcutaneous kynurenine injections were stopped at 119 and 77 days post IP fibroblast injection, respectively, without a subsequent increase in blood glucose above 10 mM. Kyn injections were done daily because it was cleared from the blood within 8-10 hours. Glucose levels were monitored for up to 120 days, but control groups were sacrificed at earlier time points due to a high level of glucose and prevent the mice from suffering.

[3] = after 120 days, of Total mice per group

| Compound | hair loss pattern after 120 days ([1]; FIG. 4A) | AA (number of mice with alopecia areata) [1, 3] | Normal (number of mice) [1, 3] | Prevention (%) ([1]; prevention of AA) | cleared from the blood within [2] [h] |
| --- | --- | --- | --- | --- | --- |
| Nc1ccccc1C(=O)CC(N)C(=O)O (centres unmarked) [FS1 alone, kynurenine] | some hair growth | 4 | 1 | 20 |  |
| Nc1ccccc1C(=O)CC(N)C(=O)O (racemic) [Kyn, DL-kynurenine] |  |  |  |  | 8 to 10 |
